Biological target: PRMT5-MEP50 enzyme complex (Homo sapiens (Human), UniProt O14744)
Test: PRMT5 enzyme activity in vitro assay (methylation of histone H4R3, ELISA absorbance at 450 nm)
Assay type: biochemical
Conditions: SAM, histone H4 peptide, room temperature 2 hours, 8 points from 10 μM to 0.128 nM
Protocol: Method for Measuring Enzyme Activity
In vitro assay: PRMT5-MEP50 enzyme complex, cofactor S-adenosylmethionine (SAM) and histone H4 peptide were reacted in vitro, and methylation of arginine (H4R3)—which is the third amino acid of histone H4—was measured in order to measure the enzyme activity of PRMT5.
Reagents: PRMT5-MEP50 enzyme complex (Catalog No. 51045), blocking buffer (52100-B), histone methyltransferase reaction buffer 2 (4×HMT assay buffer 2, Catalog No. 52170), and primary antibody (primary antibody 4-3, Catalog No. 52150) were purchased from BPS Bioscience (USA). The histone H4 peptide (1-20 amino acids) was custom made by Komabiotech (Korea) and used. S-adenosylmethionine was purchased from NEB (New England Biolabs, USA, Catalog No. B9003S). Plates for coating histone H4 peptide, washing buffer and color development reagent were purchased from the following vendors: Plate (Immobilizer™-Amino Plate, NUNC, Denmark, Catalog No. 436023), carbonate-bicarbonate buffer (Sigma-Aldrich, USA, Catalog No. C3041), washing buffer (10×TBST, Biosesang, Korea, Catalog No. T2005), TMB ELISA substrate (Abcam, UK, Catalog No. ab210902), horseradish peroxidase (HRP)-conjugated antibody (Abcam, UK, Catalog No. ab6721).
Experimental procedure: The histone H4 peptide was diluted with carbonate-bicarbonate buffer and prepared to 100 μg/mL, and then dispensed onto the plate per 100 μL and reacted at 37° C. for 1 hour. PRMT5-MEP50 enzyme complex and S-adenosylmethionine were diluted with histone methyltransferase reaction buffer to prepare 5 μg/mL and 2 μM, respectively, and then 20 μL of PRMT5-MEP50 enzyme complex and 25 μL of S-adenosylmethionine were dispensed onto the plate prepared above. 5 μL of the compound diluted with 10% dimethyl sulfoxide solution was added thereto and reacted at room temperature for 2 hours (final volume=50 μL). The concentration of the compound was diluted 1:5 from 10 μM until the lowest concentration of 0.128 nM, and 8 points were used for the test. After preparing the primary antibody by diluting 1:2000 with blocking buffer, 100 μL was added to the plate and reacted at room temperature for 1 hour. After preparing horseradish peroxidase-conjugated antibody by diluting 1:10,000 with blocking buffer, 100 μL was added to the plate and reacted at room temperature for 1 hour. 100 μL of TMB substrate was added and reacted for 3 minutes at room temperature, and 100 μL of 1 N sulfuric acid was then added to terminate the reaction. Then, the absorbance at 450 nm was measured to calculate the IC50 value of the compound. (+++: 1 to 100 nM, ++: greater than 100 to 1,000 nM, +: greater than 1,000 to 10,000 nM)

Chain of PRMT5-MEP50 enzyme complex (O14744 2-637): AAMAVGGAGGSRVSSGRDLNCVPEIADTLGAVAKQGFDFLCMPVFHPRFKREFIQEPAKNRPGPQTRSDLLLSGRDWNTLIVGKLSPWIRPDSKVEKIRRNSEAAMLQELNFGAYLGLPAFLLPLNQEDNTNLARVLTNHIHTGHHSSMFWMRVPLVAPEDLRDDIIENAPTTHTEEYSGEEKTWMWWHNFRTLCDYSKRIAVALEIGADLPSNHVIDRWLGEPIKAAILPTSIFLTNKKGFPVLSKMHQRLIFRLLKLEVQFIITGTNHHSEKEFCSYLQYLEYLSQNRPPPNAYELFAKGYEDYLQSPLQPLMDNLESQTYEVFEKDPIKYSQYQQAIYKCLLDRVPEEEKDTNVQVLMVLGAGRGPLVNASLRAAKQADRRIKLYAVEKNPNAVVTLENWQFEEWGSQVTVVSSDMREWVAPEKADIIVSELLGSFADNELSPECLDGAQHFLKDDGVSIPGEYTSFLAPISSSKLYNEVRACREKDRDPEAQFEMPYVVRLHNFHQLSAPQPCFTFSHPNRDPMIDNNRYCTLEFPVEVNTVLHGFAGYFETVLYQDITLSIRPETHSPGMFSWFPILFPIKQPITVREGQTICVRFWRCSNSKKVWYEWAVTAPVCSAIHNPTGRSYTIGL
Chain of PRMT5-MEP50 enzyme complex (Q9BQA1 2-342 partner): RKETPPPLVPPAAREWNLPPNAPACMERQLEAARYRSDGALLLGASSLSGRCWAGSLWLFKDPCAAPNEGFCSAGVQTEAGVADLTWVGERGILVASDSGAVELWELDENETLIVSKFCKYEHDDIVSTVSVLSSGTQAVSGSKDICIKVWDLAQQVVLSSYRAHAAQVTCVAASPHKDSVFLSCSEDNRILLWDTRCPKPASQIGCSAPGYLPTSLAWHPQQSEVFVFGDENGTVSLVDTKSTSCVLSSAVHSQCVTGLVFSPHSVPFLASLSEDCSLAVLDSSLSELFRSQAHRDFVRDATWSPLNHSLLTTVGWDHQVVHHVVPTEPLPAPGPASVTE

SMILES | IC50
COc1ccc2c(c1)CCCN(CC(O)CN1CCc3ccccc3C1)C2=O (centres unmarked) [Example 2, 2-[3-(3,4-dihydro-1H-isoquinolin-2-yl)-2-hydroxy-propyl]-7-methoxy-4,5-dihydro-3H-2-benzazepin-1-one] | 100 to 1000 nM
O=C1c2ccc(OC(F)(F)F)cc2CCCN1CC(O)CN1CCc2ccccc2C1 (centres unmarked) [Example 4, 2-[3-(3,4-dihydro-1H-isoquinolin-2-yl)-2-hydroxy-propyl]-7-(trifluoromethoxy)-4,5-dihydro-3H-2-benzazepin-1-one] | 100 to 1000 nM
O=C1c2ccc(OC(F)(F)F)cc2CCCN1C[C@H](O)CN1CCc2ccccc2C1 [Example 6, 2-[(2R)-3-(3,4-dihydro-1H-isoquinolin-2-yl)-2-hydroxy-propyl]-7-(trifluoromethoxy)-4,5-dihydro-3H-2-benzazepin-1-one] | 1 to 100 nM
CCOc1ccc2c(c1)CCCN(C[C@H](O)CN1CCc3ccccc3C1)C2=O [Example 7, 2-[(2R)-3-(3,4-dihydro-1H-isoquinolin-2-yl)-2-hydroxy-propyl]-7-ethoxy-4,5-dihydro-3H-2-benzazepin-1-one] | 100 to 1000 nM
O=C1c2ccc(OS(=O)(=O)C(F)(F)F)cc2CCCN1C[C@H](O)CN1CCc2ccccc2C1 [Example 8, [2-[(2R)-3-(3,4-dihydro-1H-isoquinolin-2-yl)-2-hydroxy-propyl]-1-oxo-4,5-dihydro-3H-2-benzazepin-7-yl]trifluoromethanesulfonate] | 100 to 1000 nM
N#Cc1ccc2c(c1)CCCN(C[C@H](O)CN1CCc3ccccc3C1)C2=O [Example 9, 2-[(2R)-3-(3,4-dihydro-1H-isoquinolin-2-yl)-2-hydroxy-propyl]-1-oxo-4,5-dihydro-3H-2-benz azepin-7-carbonitrile] | 100 to 1000 nM
CC(C)(C)OC(=O)N1CC=C(c2ccc3c(c2)OCCN(C[C@H](O)CN2CCc4ccccc4C2)C3=O)CC1 [Example 14, Tert-butyl 4-[4-[(2R)-3-(3,4-dihydro-1H-isoquinolin-2-yl)-2-hydroxy-propyl]-5-oxo-2,3-dihydro-1,4-benzoxazepin-8-yl]-3,6-dihydro-2H-pyridine-1-carboxylate] | 100 to 1000 nM
O=C1c2ccc(C3=CCNCC3)cc2OCCN1C[C@H](O)CN1CCc2ccccc2C1 [Example 15, 4-[(2R)-3-(3,4-dihydro-1H-isoquinolin-2-yl)-2-hydroxy-propyl]-8-(1,2,3,6-tetrahydropyridin-4-yl)-2,3-dihydro-1,4-benzoxazepin-5-one] | 1 to 100 nM
CCN1CC=C(c2ccc3c(c2)OCCN(C[C@H](O)CN2CCc4ccccc4C2)C3=O)CC1 [Example 18, 4-[(2R)-3-(3,4-dihydro-1H-isoquinolin-2-yl)-2-hydroxy-propyl]-8-(1-ethyl-3,6-dihydro-2H-pyridin-4-yl)-2,3-dihydro-1,4-benzoxazepin-5-one] | 100 to 1000 nM
CC1CCN(Cc2ccc3c(c2)OCCN(C[C@H](O)CN2CCc4ccccc4C2)C3=O)CC1 [Example 27, 4-[(2R)-3-(3,4-dihydro-1H-isoquinolin-2-yl)-2-hydroxy-propyl]-8-[(4-methyl-1-piperidyl)methyl]-2,3-dihydro-1,4-benzoxazepin-5-one] | 1 to 100 nM

The next lines start with the values.

IC50 | SMILES
100 to 1000 nM | O=C1c2ccc(C(F)(F)F)cc2OCCN1C[C@H](O)CN1CCc2ccccc2C1 [Example 5, 4-[(2R)-3-(3,4-dihydro-1H-isoquinolin-2-yl)-2-hydroxy-propyl]-8-(trifluoromethyl)-2,3-dihydro-1,4-benzoxazepin-5-one]
100 to 1000 nM | Cc1ccc2c(c1)OCCN(C[C@H](O)CN1CCc3ccccc3C1)C2=O [Example 10, 4-[(2R)-3-(3,4-dihydro-1H-isoquinolin-2-yl)-2-hydroxy-propyl]-8-methyl-2,3-dihydro-1,4-benzoxazepin-5-one]
1 to 100 nM | CC(C)Cc1ccc2c(c1)OCCN(C[C@H](O)CN1CCc3ccccc3C1)C2=O [Example 12, 4-[(2R)-3-(3,4-dihydro-1H-isoquinolin-2-yl)-2-hydroxy-propyl]-8-isobutyl-2,3-dihydro-1,4-benzoxazepin-5-one]
1 to 100 nM | O=C1c2ccc(CCC(F)(F)F)cc2OCCN1C[C@H](O)CN1CCc2ccccc2C1 [Example 13, 4-[(2R)-3-(3,4-dihydro-1H-isoquinolin-2-yl)-2-hydroxy-propyl]-8-(3,3,3-trifluoropropyl)-2,3-dihydro-1,4-benzoxazepin-5-one]
1 to 100 nM | CC(=O)N1CC=C(c2ccc3c(c2)OCCN(C[C@H](O)CN2CCc4ccccc4C2)C3=O)CC1 [Example 16, 8-(1-acetyl-3,6-dihydro-2H-pyridin-4-yl)-4-[(2R)-3-(3,4-dihydro-1H-isoquinolin-2-yl)-2-hydroxy-propyl]-2,3-dihydro-1,4-benzoxazepin-5-one]
1 to 100 nM | CC(=O)N1CCC(c2ccc3c(c2)OCCN(C[C@H](O)CN2CCc4ccccc4C2)C3=O)CC1 [Example 17, 8-(1-acetyl-4-piperidyl)-4-[(2R)-3-(3,4-dihydro-1H-isoquinolin-2-yl)-2-hydroxy-propyl]-2,3-dihydro-1,4-benzoxazepin-5-one]
100 to 1000 nM | CC(C)N1CC=C(c2ccc3c(c2)OCCN(C[C@H](O)CN2CCc4ccccc4C2)C3=O)CC1 [Example 19, 4-[(2R)-3-(3,4-dihydro-1H-isoquinolin-2-yl)-2-hydroxy-propyl]-8-(1-isopropyl-3,6-dihydro-2H-pyridin-4-yl)-2,3-dihydro-1,4-benzoxazepin-5-one]
100 to 1000 nM | O=C1c2ccc(C3=CCOCC3)cc2OCCN1C[C@H](O)CN1CCc2ccccc2C1 [Example 20, 4-[(2R)-3-(3,4-dihydro-1H-isoquinolin-2-yl)-2-hydroxy-propyl]-8-(3,6-dihydro-2H-pyran-4-yl)-2,3-dihydro-1,4-benzoxazepin-5-one]
100 to 1000 nM | O=C1c2ccc(C3CCOCC3)cc2OCCN1C[C@H](O)CN1CCc2ccccc2C1 [Example 21, 4-[(2R)-3-(3,4-dihydro-1H-isoquinolin-2-yl)-2-hydroxy-propyl]-8-tetrahydropyran-4-yl-2,3-dihydro-1,4-benzoxazepin-5-one]
1 to 100 nM | O=C1c2ccc(CN3CCCCC3)cc2OCCN1C[C@H](O)CN1CCc2ccccc2C1 [Example 23, 4-[(2R)-3-(3,4-dihydro-1H-isoquinolin-2-yl)-2-hydroxy-propyl]-8-(1-piperidylmethyl)-2,3-dihydro-1,4-benzoxazepin-5-one]
1 to 100 nM | O=C1c2ccc(CN3CCCC3)cc2OCCN1C[C@H](O)CN1CCc2ccccc2C1 [Example 24, 4-[(2R)-3-(3,4-dihydro-1H-isoquinolin-2-yl)-2-hydroxy-propyl]-8-(pyrrolidin-1-ylmethyl)-2,3-dihydro-1,4-benzoxazepin-5-one]
100 to 1000 nM | CN(C)Cc1ccc2c(c1)OCCN(C[C@H](O)CN1CCc3ccccc3C1)C2=O [Example 25, 4-[(2R)-3-(3,4-dihydro-1H-isoquinolin-2-yl)-2-hydroxy-propyl]-8-[(dimethylamino)methyl]-2,3-dihydro-1,4-benzoxazepin-5-one]
100 to 1000 nM | CCN(CC)Cc1ccc2c(c1)OCCN(C[C@H](O)CN1CCc3ccccc3C1)C2=O [Example 26, 8-(diethylaminomethyl)-4-[(2R)-3-(3,4-dihydro-1H-isoquinolin-2-yl)-2-hydroxy-propyl]-2,3-dihydro-1,4-benzoxazepin-5-one]

— patent publication US11111237B2, “Bicyclic compound and use thereof” (SK BIOPHARMACEUTICALS CO., LTD., priority 2019, dated 2021)
